Data as given in PubChem BioAssay (NCI).
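Each compound was tested at five concentrations against cells in 96-well plates for 48 hours. GI50 = concentration required for 50% inhibition of growth. TGI is the concentration that stops growth completely.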

How the values were obtained:
Test in all cases: NCI anticancer screen, dose series, 48 h
OVCAR-3 ovarian = tested on: OVCAR-3 ovarian
UACC-62 melanoma = tested on: UACC-62 melanoma
HOP-62 NSCLC = tested on: HOP-62 NSCLC
NCI-H226 lung = tested on: NCI-H226 lung
UO-31 renal = tested on: UO-31 renal
ACHN renal = tested on: ACHN renal
SR leukemia = tested on: SR leukemia
HCT-15 colon = tested on: HCT-15 colon
SK-OV-3 ovarian = tested on: SK-OV-3 ovarian
MDA-MB-231 breast = tested on: MDA-MB-231 breast

O=C1C=C(NCCO)c2nccc3c2c1nc1ccccc13
GI50 (OVCAR-3 ovarian): 18.6 µM | TGI (OVCAR-3 ovarian): 52.6 µM | GI50 (UACC-62 melanoma): 13.4 µM | TGI (UACC-62 melanoma): 31 µM | GI50 (HOP-62 NSCLC): 12.3 µM | TGI (HOP-62 NSCLC): 57.8 µM | GI50 (NCI-H226 lung): 14.8 µM | TGI (NCI-H226 lung): 59.5 µM | GI50 (UO-31 renal): 24.6 µM | TGI (UO-31 renal): > 100 µM | GI50 (ACHN renal): 16.3 µM | TGI (ACHN renal): > 100 µM | GI50 (SR leukemia): 6.76 µM | TGI (SR leukemia): > 100 µM | GI50 (HCT-15 colon): 18.6 µM | TGI (HCT-15 colon): > 100 µM | GI50 (SK-OV-3 ovarian): 80.1 µM | TGI (SK-OV-3 ovarian): > 100 µM | GI50 (MDA-MB-231 breast): 24.5 µM | TGI (MDA-MB-231 breast): > 100 µM

Cn1c(CCCC(=O)O)nc2cc(N(CCCl)CCCl)ccc21
GI50 (OVCAR-3 ovarian): > 66.2 µM | TGI (OVCAR-3 ovarian): > 93.3 µM | GI50 (UACC-62 melanoma): 52.5 µM | TGI (UACC-62 melanoma): > 100 µM | GI50 (HOP-62 NSCLC): > 76.3 µM | TGI (HOP-62 NSCLC): > 100 µM | GI50 (NCI-H226 lung): > 66.2 µM | TGI (NCI-H226 lung): > 100 µM | GI50 (UO-31 renal): > 100 µM | TGI (UO-31 renal): > 100 µM | GI50 (ACHN renal): > 77.3 µM | TGI (ACHN renal): > 100 µM | GI50 (SR leukemia): 40.4 µM | TGI (SR leukemia): > 100 µM | GI50 (HCT-15 colon): > 100 µM | TGI (HCT-15 colon): > 100 µM | GI50 (SK-OV-3 ovarian): > 86.4 µM | TGI (SK-OV-3 ovarian): > 100 µM | GI50 (MDA-MB-231 breast): > 69.6 µM | TGI (MDA-MB-231 breast): > 100 µM

CCc1nc(C)cn1C(=O)OCc1nc2nc(Cl)nc(N3CCOCC3)c2[nH]1
GI50 (OVCAR-3 ovarian): 0.636 µM | TGI (OVCAR-3 ovarian): 1.98 µM | GI50 (UACC-62 melanoma): 1.44 µM | TGI (UACC-62 melanoma): 2.75 µM | GI50 (HOP-62 NSCLC): 1.54 µM | TGI (HOP-62 NSCLC): 3.56 µM | GI50 (NCI-H226 lung): 1.84 µM | TGI (NCI-H226 lung): 4.11 µM | GI50 (UO-31 renal): 1.01 µM | TGI (UO-31 renal): 2.18 µM | GI50 (ACHN renal): 0.854 µM | TGI (ACHN renal): 2.09 µM | GI50 (SR leukemia): 0.288 µM | TGI (SR leukemia): > 100 µM | GI50 (HCT-15 colon): 0.677 µM | TGI (HCT-15 colon): 2.22 µM | GI50 (SK-OV-3 ovarian): 4.04 µM | TGI (SK-OV-3 ovarian): 15.6 µM | GI50 (MDA-MB-231 breast): 1.39 µM | TGI (MDA-MB-231 breast): 2.83 µM

Cn1ncc(C#N)c1-c1ccc2c(c1)CN([C@H](CN)Cc1cccc(F)c1)C2=O
GI50 (OVCAR-3 ovarian): 10 µM | TGI (OVCAR-3 ovarian): > 90.4 µM | GI50 (UACC-62 melanoma): 3.17 µM | TGI (UACC-62 melanoma): 22.6 µM | GI50 (HOP-62 NSCLC): 23.6 µM | TGI (HOP-62 NSCLC): > 100 µM | GI50 (NCI-H226 lung): 13.6 µM | TGI (NCI-H226 lung): 65.3 µM | GI50 (UO-31 renal): 3.43 µM | TGI (UO-31 renal): 42.5 µM | GI50 (ACHN renal): 13.6 µM | TGI (ACHN renal): > 100 µM | GI50 (SR leukemia): 17.2 µM | TGI (SR leukemia): 50.7 µM | GI50 (HCT-15 colon): 15.9 µM | TGI (HCT-15 colon): > 100 µM | GI50 (SK-OV-3 ovarian): 0.255 µM | TGI (SK-OV-3 ovarian): 13.2 µM | GI50 (MDA-MB-231 breast): 20.9 µM | TGI (MDA-MB-231 breast): > 100 µM

CC[C@@H](C)/C=C(C)/C=C/C(=O)c1c(O)c(-c2ccc(OC(=O)[C@@]34CC[C@@](C)(C(=O)O3)C4(C)C)cc2)cn(O)c1=O
GI50 (OVCAR-3 ovarian): 1.04 µM | TGI (OVCAR-3 ovarian): > 50 µM | GI50 (UACC-62 melanoma): 1.16 µM | TGI (UACC-62 melanoma): 2.7 µM | GI50 (HOP-62 NSCLC): 2.05 µM | TGI (HOP-62 NSCLC): > 50 µM | GI50 (NCI-H226 lung): 1.39 µM | TGI (NCI-H226 lung): > 50 µM | GI50 (UO-31 renal): 1.32 µM | TGI (UO-31 renal): 7.89 µM | GI50 (ACHN renal): 1.32 µM | TGI (ACHN renal): 11.6 µM | GI50 (SR leukemia): 1.32 µM | TGI (SR leukemia): 7.4 µM | GI50 (HCT-15 colon): 1.17 µM | TGI (HCT-15 colon): > 50 µM | GI50 (SK-OV-3 ovarian): 7.48 µM | TGI (SK-OV-3 ovarian): > 50 µM | GI50 (MDA-MB-231 breast): 1.83 µM | TGI (MDA-MB-231 breast): > 50 µM

Cc1ccc(C[As+](c2ccccc2)(c2ccccc2)c2ccccc2)cc1
GI50 (OVCAR-3 ovarian): 0.611 µM | TGI (OVCAR-3 ovarian): 13.9 µM | GI50 (UACC-62 melanoma): 0.371 µM | TGI (UACC-62 melanoma): 12.6 µM | GI50 (HOP-62 NSCLC): 1.5 µM | TGI (HOP-62 NSCLC): 32.9 µM | GI50 (NCI-H226 lung): 1.64 µM | TGI (NCI-H226 lung): > 100 µM | GI50 (UO-31 renal): 12.4 µM | TGI (UO-31 renal): 97.4 µM | GI50 (ACHN renal): 3.66 µM | TGI (ACHN renal): > 100 µM | GI50 (SR leukemia): 0.797 µM | TGI (SR leukemia): 6.07 µM | GI50 (HCT-15 colon): 13 µM | TGI (HCT-15 colon): > 100 µM | GI50 (SK-OV-3 ovarian): 1.82 µM | TGI (SK-OV-3 ovarian): > 23.5 µM | GI50 (MDA-MB-231 breast): 1.46 µM | TGI (MDA-MB-231 breast): 19.6 µM

COc1cc(C(=O)/C=C/c2cc(-c3ccc4c(c3)OCO4)n[nH]2)cc(OC)c1OC
GI50 (OVCAR-3 ovarian): 1.71 µM | TGI (OVCAR-3 ovarian): 3.5 µM | GI50 (UACC-62 melanoma): 1.81 µM | TGI (UACC-62 melanoma): 3.89 µM | GI50 (HOP-62 NSCLC): 2.32 µM | TGI (HOP-62 NSCLC): 6.24 µM | GI50 (NCI-H226 lung): 1.52 µM | TGI (NCI-H226 lung): 4.25 µM | GI50 (UO-31 renal): 1.34 µM | TGI (UO-31 renal): 2.67 µM | GI50 (ACHN renal): 2.2 µM | TGI (ACHN renal): 4.95 µM | GI50 (SR leukemia): 1.2 µM | TGI (SR leukemia): 5.63 µM | GI50 (HCT-15 colon): 1.95 µM | TGI (HCT-15 colon): 6.75 µM | GI50 (SK-OV-3 ovarian): 4.44 µM | TGI (SK-OV-3 ovarian): 14.6 µM | GI50 (MDA-MB-231 breast): 2.08 µM | TGI (MDA-MB-231 breast): 6.23 µM
